Experimental findings from PMC9532755, “Impact of lactisole on the time-intensity profile of selected sweeteners in dependence of the binding site” (Food Chemistry: X, 2022) are described below.

The subject of the assay is perceived sweet intensity (panelists). Briefly: Sensory time-intensity (TI) measurement of sweetness by a trained panel. Format: in vivo, human. The conditions noted are these: for AUC of time-intensity curve / lingering (intensity at 90 sec) / onset (time-point of first maximum intensity) / max. int. (maximum sweet intensity): lactisole alone, mean ± SEM; for AUC of time-intensity curve: 180 sec evaluation; for max. int. (maximum sweet intensity): unstructured scale 0-100. An excerpt:
All panelists gave their written informed consent for participating in the panel and had to complete a sensory training. […] On a last training day, the evaluation on unstructured scales and the time-dependent evaluation on the computer were trained. All panelists reported to be in good general health condition, and not being under medication or pregnant. At least one hour before every training or tasting, panelists were instructed not to smoke and not to consume intense tasting food or beverage (e.g. coffee, chili, garlic, chewing gum) and to avoid in general strong hunger or fullness as well as strong odors or perfume on test days.
Every test solution was assessed randomly at two different test days with at least 8 panelists participating per replicate. The panelists were free to choose to participate at the different test days. A maximum of five test compounds were assessed in one session. All samples were coded with three-digit random code and presented to the panelists in randomized order. On each test day, panelists were presented five sweet solutions with 0, 25, 50, 100 and 200 g/L sucrose as a scale training for the ratings from “not at all” to “very intensive” sweetness. […] The three minutes of evaluation were chosen to capture as much of the lingering as possible without wearing out the panelists during the evaluation. A total of 350 measuring time points was recorded within the pre-set time frame, especially to see differences in the first seconds of evaluation, which are important for the onset. The panelists were asked to take the sample (20 mL) into their mouth, while starting the timer and simultaneously the evaluation of sweet intensity over the time, and to spit out the sample after ten seconds while continuing the evaluation of the sweetness intensity until the end of the three minutes.
For comparison of the time-dependent properties, the following descriptors were used: the maximum intensity at the first 30 sec of evaluation as “max. intensity”, the time-point of the first maximum intensity as “onset” in sec, […], and the area under the curve from the time-intensity plots as “AUC” as a marker for the overall intensity and duration.
All sensory experiments were conducted at the Christian Doppler Laboratory for Taste Research at the Institute for Physiological Chemistry, University of Vienna, Austria, at room temperature (21 – 23 °C). • Calcium mobilization assay
The statistical analysis and graphical representation were performed with GraphPad Prism 9.0 for sensory results and with SigmaPlot 14.0 for cell experiments. To evaluate the sensory dose–response effects of ascending sweetener concentration w/o lactisole, an asymmetrical five-parameter curve (Richard́s five-parameter dose–response curve) was fitted. The data are presented as means ± SEM from at least 16 single evaluations. Statistical significance between the different test compounds and concentration-dependent effects was assessed by two-way ANOVAs with Tukey post hoc test using Graph Pad Prism. The normal distribution of the data sets was checked by evaluation of the kurtosis (between −7 to + 7) and the skewness (between −3 to + 3). Equal variance was tested using Levenés test. In case the assumptions of a normal distribution and equal variance were not met, the non-parametric ANOVA on ranks (Kruskal-Wallis Test) with Dunn's post-hoc test without the calculation of interaction was applied. A Pearson product moment correlation was conducted to investigate relationships between sensory results and cell responses of the tested sweeteners.

Take `COc1ccc(OC(C)C(=O)O)cc1` (stereo not drawn) [lactisole, sodium 2-(4-methoxyphenoxy) propanoate]: the “time after which a sweet perception (sweet aftertaste) was reported” value (lactisole 0.46 mM and 0.92 mM, sip-and-spit, spit out after ten seconds) is given as “around 30 sec”. Also, where the note is “0.46 mM”, the “AUC of time-intensity curve” value is on record as 4285 ± 926, the “lingering (intensity at 90 sec)” value is listed as 16.96 ± 3.9, the “onset (time-point of first maximum intensity)” value stood at 106.0 ± 19.8 s and the “max. int. (maximum sweet intensity)” value is given as 23.3 ± 4.0. For the same compound, for the setting “0.92 mM”, the “AUC of time-intensity curve” value worked out at 5990 ± 1122, the “lingering (intensity at 90 sec)” value was 21.12 ± 3.8, the “onset (time-point of first maximum intensity)” value was 144.9 ± 21.9 s and the “max. int. (maximum sweet intensity)” value is reported as 29.8 ± 4.2.
